The text below walks through data of patent US20260042764A1, “COMPOSITIONS AND METHODS FOR INHIBITION OF KRAS” (TheRas, Inc., priority 2022, published 2026).

Where only a bound is given, the exact number is not on record here.

The test system of test [1] is SW1900 cells (KRAS G12D). Kind of test: Cell-based pERK HTRF assay in SW1900 cells (Biological Example 5). The method in brief: (§1)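 Overnight-plated cells (2.5×10^4/well, 10% FBS); 2 h compound, 9-pt 3-fold curve, 0.25% DMSO, 37° C; lysis 30 min RT; Eu cryptate/D2 anti-pERK (T202/Y204) detection 24 h, 4° C; 665/620 ratio → % pERK → 4-PL EC50.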
On the technique in general: TR-FRET usually uses a lanthanide donor and a delayed reading to cut background.

The test system of test [2] is HPAC cells (KRAS G12D). In words: Cell-based pERK HTRF assay in HPAC cells (Biological Example 5). The method in brief: as §1
Test [3] concerns Capan-2 cells (KRAS G12V). In words: Cell-based pERK HTRF assay in Capan-2 cells (Biological Example 5). Summed up:
as §1

Test [4] concerns H358 cells (KRAS G12C). In words: Cell-based pERK HTRF assay in H358 cells (Biological Example 5). The method in brief:
as §1

Another test concerns AsPC-1 cells (KRAS G12D). Kind of test: 3D Cell viability assay in AsPC-1 cells (Biological Example 6). It counts as cell-based. The conditions noted are these: AsPC-1 (KRAS G12D) spheroids, 72 hours. The method in brief:
(§2)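 Spheroids formed from 1000 cells/well over 48 h in ultra-low-attachment plates, 10% FBS medium, 37 °C, 5% CO2. Then treated 72 h with a 9-point, three-fold compound series at 0.25% DMSO. Viability by CellTiter-Glo 3D luminescence, EC50 from four-parameter variable-slope fit.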

Test [5] has as its system SW1900 cells (KRAS G12D). Kind of test: 3D Cell viability assay in SW1900 cells (Biological Example 6). In kind it is cell-based. The conditions noted are these: SW1990 (text: SW1900, KRAS G12D) spheroids, 72 hours. The method in brief:
as §2

Test [6] relates to HPAC cells (KRAS G12D). In words: 3D Cell viability assay in HPAC cells (Biological Example 6). In kind it is cell-based. The conditions noted are these: HPAC (KRAS G12D) spheroids. The method in brief: as §2
For test [7], the system named is Capan-2 cells (KRAS G12V). In words: 3D Cell viability assay in Capan-2 cells (Biological Example 6). It counts as cell-based. The settings on record: Capan-2 (KRAS G12V) spheroids, 72 hours. The method in brief:
as §2

Test [8] has as its system H358 cells (KRAS G12C). Kind of test: 3D Cell viability assay in H358 cells (Biological Example 6). In kind it is cell-based. The settings on record: H358 (KRAS G12C) spheroids, 72 hours. The method in brief: as §2
In the next test the test system is HCT116 cells (KRAS G13D). In words: 3D Cell viability assay in HCT116 cells (Biological Example 6). In kind it is cell-based. The settings on record: HCT116 (KRAS G13D) spheroids, 72 hours. The method in brief:
as §2

Test [9] concerns MKN1 cells (KRAS amplification). In words: 3D Cell viability assay in MKN1 cells (Biological Example 6). In kind it is cell-based. The settings on record: MKN (MKN1, KRAS amplification) spheroids, 72 hours. Summed up: as §2
Setting [10] is: Homo sapiens, SW1990, SW1990 cells (text: SW1900, KRAS G12D).
Setting [11] is: Homo sapiens, Capan-2, Capan-2 (KRAS G12V) cells.
Where [12] appears, read: Homo sapiens, NCI-H358, H358 (KRAS G12C) cells.

The IC50 is the concentration needed to halve the response being measured. Turning to `N#Cc1cnn2c1CN(c1nc(OC[C@@]34CCCN3C[C@H](F)C4)nc3c(F)c(-c4ccc(F)c5sc(N)c(C#N)c45)c(C(F)(F)F)cc13)CC2` [Compound 392], the IC50 in the test with SW1900 cells (KRAS G12D) [1] (setting [10]) was at most 100 nM; in the test with HPAC cells (KRAS G12D) [2] (Homo sapiens, HPAC), at most 100 nM; in test [3] (setting [11]) it was 100 to 1000 nM; in the test with H358 cells (KRAS G12C) [4] (setting [12]), at most 100 nM; with AsPC-1 cells (KRAS G12D) (Homo sapiens, ASPC1), at most 100 nM; in the test on SW1900 cells (KRAS G12D) [5] (Homo sapiens) it was at most 100 nM. The IC50 is 100 to 1000 nM with HPAC cells (KRAS G12D) [6] (Homo sapiens, HPAC, 72 h); 100 to 1000 nM in test [7] (Homo sapiens); at most 100 nM in the test on H358 cells (KRAS G12C) [8] (Homo sapiens, NCI-H358); 100 to 1000 nM in the test on HCT116 cells (KRAS G13D) (Homo sapiens, HCT-116); at most 100 nM in test [9] (Homo sapiens, MKN-1).
Consider `C[C@@H]1[C@H](N(C)c2nc(OC[C@@]34CCCN3C[C@H](F)C4)nc3c(F)c(-c4ccc(F)c5sc(N)c(C#N)c45)c(C(F)(F)F)cc23)CC(=O)N1C` [Compound 440], for which the IC50 in the test on SW1900 cells (KRAS G12D) [1] (setting [10]) was at most 100 nM; with HPAC cells (KRAS G12D) [2] (Homo sapiens, HPAC), at most 100 nM; in test [3] (setting [11]), 100 to 1000 nM; in the test on H358 cells (KRAS G12C) [4] (setting [12]) it was 100 to 1000 nM; in the test with AsPC-1 cells (KRAS G12D) (Homo sapiens, ASPC1), at most 100 nM; in the test with SW1900 cells (KRAS G12D) [5] (Homo sapiens) it was at most 100 nM. Moreover, the IC50 in the test on HPAC cells (KRAS G12D) [6] (Homo sapiens, HPAC, 72 h) is 100 to 1000 nM; in [7] (Homo sapiens), 100 to 1000 nM; in the test with H358 cells (KRAS G12C) [8] (Homo sapiens, NCI-H358), 100 to 1000 nM; with HCT116 cells (KRAS G13D) (Homo sapiens, HCT-116) it was above 1000 nM; in [9] (Homo sapiens, MKN-1), at most 100 nM.
Regarding `CCC(=O)N1C[C@@H](N(CC)c2nc(OC[C@@]34CCCN3C[C@H](F)C4)nc3c(F)c(-c4ccc(F)c5sc(N)c(C#N)c45)c(C(F)(F)F)cc23)C[C@H]1C` [Compound 442], the IC50 in the test on SW1900 cells (KRAS G12D) [1] (setting [10]) is at most 100 nM; with HPAC cells (KRAS G12D) [2] (Homo sapiens, HPAC), at most 100 nM; in test [3] (setting [11]) it was at most 100 nM; in the test with H358 cells (KRAS G12C) [4] (setting [12]), at most 100 nM; in the test on AsPC-1 cells (KRAS G12D) (Homo sapiens, ASPC1) it was at most 100 nM; in the test with SW1900 cells (KRAS G12D) [5] (Homo sapiens), at most 100 nM. The IC50 with HPAC cells (KRAS G12D) [6] (Homo sapiens, HPAC, 72 h) was 100 to 1000 nM; in test [7] (Homo sapiens), at most 100 nM; in the test on H358 cells (KRAS G12C) [8] (Homo sapiens, NCI-H358) it was at most 100 nM; with HCT116 cells (KRAS G13D) (Homo sapiens, HCT-116) it was 100 to 1000 nM; in [9] (Homo sapiens, MKN-1), at most 100 nM.
In the case of `CCN(c1nc(OCC23CCCN2CC(F)C3)nc2c(F)c(-c3ccc(F)c4sc(N)c(C#N)c34)c(C(F)(F)F)cc12)C1CC(C)N(C(=O)C2CC2(F)F)C1` (centres unmarked) [Compound 732], the IC50 in the test with SW1900 cells (KRAS G12D) [1] (SW1990 cells (text: SW1900, KRAS G12D)) is at most 100 nM; in the test with HPAC cells (KRAS G12D) [2], at most 100 nM; in [3] (Capan-2 (KRAS G12V) cells), at most 100 nM; in the test on H358 cells (KRAS G12C) [4] (H358 (KRAS G12C) cells) it was at most 100 nM; in the test on AsPC-1 cells (KRAS G12D) it was at most 100 nM; with SW1900 cells (KRAS G12D) [5] it was at most 100 nM. Besides, the IC50 was at most 100 nM with HPAC cells (KRAS G12D) [6] (72 hours); at most 100 nM in test [7]; at most 100 nM with H358 cells (KRAS G12C) [8]; 100 to 1000 nM in the test on HCT116 cells (KRAS G13D); at most 100 nM in [9].
